The assay concerns BE(2)-C cell. Description: Cell proliferation assay (MTS) in BE(2)-C cells. It is filed as cell-based. To be noted: Homo sapiens, inhibition of BE(2)-C cell proliferation, 48 h. The method, boiled down: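 BE(2)-C cells (3000/well, DMEM + 10% FBS) were treated for 48 h at 37 °C with compound at 1.5–10000 nM in nine concentrations. Viability was measured by MTS (2 h, stopped with SDS) at 490/650 nm, and IC50 was calculated from the dose-response.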

The IC50 is the concentration at which inhibition is half-maximal. A high value points to weaker potency in that assay.

As to `C[C@@H]1CCc2nc3c(F)cc(-c4nc(Nc5ccc(CN6CC7(CCNCC7)C6)cn5)ncc4F)cc3n21` [Example 89, (R)-N-(5-((2,7-diazaspiro[3.5]nonan-2-yl)methyl)pyridin-2-yl)-5-fluoro-4-(5-fluoro-1-methyl-2,3-dihydro-1H-benzo[d]pyrrolo[1,2-a]imidazol-7-yl)pyrimidin-2-amine], the IC50 is greater than 100 nM. `CCN1CCN(Cc2cnc(Nc3cc(-c4cc(F)c5nc6n(c5c4)C(C)(C)CC6)c(F)cn3)nc2)CC1` [Example 166, 5-((4-ethylpiperazin-1-yl)methyl)-N-(5-fluoro-4-(5-fluoro-1,1-dimethyl-2,3-dihydro-1H-benzo[d]pyrrolo[1,2-a]imidazol-7-yl)pyridin-2-yl)pyrimidin-2-amine] showed an IC50 greater than 100 nM. The value for `CN1CC2CCC(C1)N2Cc1ccc(Nc2ncc(F)c(-c3cc(F)c4nc5n(c4c3)C(C)(C)CC5)n2)nc1` [Example 127, 5-fluoro-4-(5-fluoro-1,1-dimethyl-2,3-dihydro-1H-benzo[d]pyrrolo[1,2-a]imidazol-7-yl)-N-(5-((3-methyl-3,8-diazabicyclo[3.2.1]octan-8-yl)methyl)pyridin-2-yl)pyrimidin-2-amine] was less than 10 nM. `Fc1cnc(Nc2ccc(CN3C[C@@H]4C[C@H]3CN4)cn2)nc1-c1cc(F)c2nc3n(c2c1)C1(CC3)CC1` [Example 135, N-(5-(((1S,4S)-2,5-diazabicyclo[2.2.1]heptan-2-yl)methyl)pyridin-2-yl)-5-fluoro-4-(5-fluoro-2,3-dihydrospiro[benzo[d]pyrrolo[1,2-a]imidazole-1,1′-cyclopropan]-7-yl)pyrimidin-2-amine] returned an IC50 greater than 1000 nM. With `C[C@@H]1CCc2nc3c(F)cc(-c4nc(Nc5ccc(CN6C7CCC6CN(C)C7)cn5)ncc4F)cc3n21` [Example 102, 5-fluoro-4-((R)-5-fluoro-1-methyl-2,3-dihydro-1H-benzo[d]pyrrolo[1,2-a]imidazol-7-yl)-N-(5-((3-methyl-3,8-diazabicyclo[3.2.1]octan-8-yl)methy1)pyridin-2-yl)pyrimidin-2-amine], the IC50 lay within 10 to 100 nM. In the case of `COC[C@@H]1CCc2nc3c(F)cc(-c4nc(Nc5ccc(CN6CCN(C)CC6)cn5)ncc4F)cc3n21` [Example 8, (S)-5-fluoro-4-(5-fluoro-1-(methoxymethyl)-2,3-dihydro-1H-benzo[d]pyrrolo[1,2-a]imidazol-7-yl)-N-(5-((4-methylpiperazin-1-yl)methyl)pyridin-2-yl)pyrimidin-2-amine], the IC50 is greater than 100 nM. In the case of `CN1C2CC1CN(Cc1ccc(Nc3ncc(F)c(-c4cc(F)c5nc6n(c5c4)C4(CC6)CC4)n3)nc1)C2` [Example 133, 5-fluoro-4-(5-fluoro-2,3-dihydrospiro[benzo[d]pyrrolo[1,2-a]imidazole-1,1′-cyclopropan]-7-yl)-N-(5-((6-methyl-3,6-diazabicyclo[3.1.1]heptan-3-yl)methyl)pyridin-2-yl)pyrimidin-2-amine] it was 10 to 100 nM; in that of `CN1CCN(Cc2ccc(Nc3ncc(F)c(-c4cc(F)c5nc6n(c5c4)CCC6)n3)nc2)CC1` [Example 150, 5-fluoro-4-(5-fluoro-2,3-dihydro-1H-benzo[d]pyrrolo[1,2-a]imidazol-7-yl)-N-(5-((4-methyl-piperazin-1-yl)methyl)pyridin-2-yl)pyrimidin-2-amine], 10 to 100 nM.

With `CN1CC2CN(Cc3ccc(Nc4ncc(F)c(-c5cc(F)c6nc7n(c6c5)[C@H](CF)CC7)n4)nc3)CC2C1` (stereo partly drawn) [Example 27, 5-fluoro-4-((S)-5-fluoro-1-(fluoromethyl)-2,3-dihydro-1H-benzo[d]pyrrolo[1,2-a]imidazol-7-yl)-N-(5-((5-methylhexahydropyrrolo[3,4-c]pyrrol-2(1H)-yl)methyl)pyridin-2-yl)pyrimidin-2-amine], the half-maximal inhibitory concentration (IC50) was in the range of 10 to 100 nM.

(Values after patent US10450316B2, “Certain protein kinase inhibitor” (Chongqing Fochon Pharmaceutical Co., Ltd., priority 2015, dated 2019).)
